Test results reported in patent publication US10640402B2, “Use of oxidizing and non-oxidizing biocides for control of bacteria tolerant to stabilized-oxidant treatment” (Ecolab USA Inc., priority 2012, dated 2020).

Tests used:
[1] = tested on: Cl2-urea tolerant bacteria; test: Biocide screening against Cl2-urea tolerant bacteria (Table 4); assay type: cell-based
[2] = tested on: Cl2-urea tolerant bacteria; test: Laboratory screening using process water treated with urea-stabilized chlorine (Table 5); assay type: cell-based; details: for control of Cl2-urea tolerant bacteria (in words): typical use rates, Table 5 screening
[3] = tested on: urease-producing microorganisms; test: Antimicrobial screening of biocides for control of urease-producing microorganisms; assay type: cell-based
[4] = tested on: process water microbial population (paper mill); test: Initial laboratory screening of paper mill process water treated with NaOCl, before the urea-stabilized chlorine program; assay type: cell-based; details: 5 ppm Cl2
Experimental: (§1) The process water stream of a paper mill was treated using a urea-stabilized chlorine program.
(§2) Process water samples were challenged with untreated process water (1% v/v) after the 4-hours samples were plated. […] In Table 1, preservation from urea-stabilized chlorine was observed prior to the application of this program to the mill water system and development of the tolerant population.

[5] = tested on: microbial population tolerant to urea-stabilized chlorine; test: Repeat laboratory screening of process water after 10 months of urea-stabilized chlorine treatment; assay type: cell-based; details: 5 ppm Cl2
Experimental: as §1, §2

urease = test: Chlorine residual (TRO) with and without urease enzyme; assay type: physicochemical; details: control without urease
[6] = 24-hour, challenged with untreated process water (1% v/v) after 4-hour plating

| Compound | CFU/mL, 24-hour ([1]; 25 ppm product) | CFU/mL, 24-hour ([1]; 100 ppm product) | control of Cl2-urea tolerant bacteria (in words) [2] | CFU/mL, 1-hour ([2]; 25 ppm product) | CFU/mL, 4-hour ([2]; 25 ppm product) | CFU/mL, 24-hour ([2]; 25 ppm product) | CFU/mL, 1-hour ([2]; 100 ppm product) | CFU/mL, 4-hour ([2]; 100 ppm product) | CFU/mL, 24-hour ([2]; 100 ppm product) | control of urease-producing microorganisms (in words) [3] | also measured |
| --- | --- | --- | --- | --- | --- | --- | --- | --- | --- | --- | --- |
| O=[N+]([O-])C(Br)(CO)CO [Bronopol] | 1.0 × 10^5 CFU/mL | 1.3 × 10^4 CFU/mL | not effective | – | – | – | – | – | – | – | – |
| N#CC(Br)(Br)C(N)=O [Dibromonitrilopropionamide, dibromonitrilopropionamide] | 4.2 × 10^3 CFU/mL | <100 CFU/mL | particularly effective | 1.4 × 10^5 CFU/mL | 7.0 × 10^4 CFU/mL | 3.0 × 10^4 CFU/mL | 6.0 × 10^2 CFU/mL | 2.0 × 10^2 CFU/mL | 3.0 × 10^2 CFU/mL | effective control | – |
| O=CCCCC=O [Glutaraldehyde, glutaraldehyde] | 100 CFU/mL | <100 CFU/mL | particularly effective | 1.0 × 10^6 CFU/mL | 8.5 × 10^3 CFU/mL | 1.0 × 10^2 CFU/mL | 1.0 × 10^2 CFU/mL | 1.0 × 10^2 CFU/mL | 2 × 10^2 CFU/mL | effective control | – |
| [Na+].[O-]Cl [NaOCl, sodium hypochlorite] | – | – | also effective, but was required at higher concentrations | – | – | – | – | – | – | also effective | CFU/mL, Initial Screening, 1-hour ([4]; 1-hour): 3.4 × 10^5 CFU/mL; CFU/mL, Initial Screening, 4-hour ([4]; 4-hour): 3.6 × 10^6 CFU/mL; CFU/mL, Initial Screening, 24-hour [4, 6]: 1.9 × 10^7 CFU/mL; CFU/mL, Repeat Screening, 1-hour ([5]; 1-hour): 2.8 × 10^6 CFU/mL; CFU/mL, Repeat Screening, 4-hour ([5]; 4-hour): 6.0 × 10^6 CFU/mL; CFU/mL, Repeat Screening, 24-hour [5, 6]: 3.6 × 10^7 CFU/mL; CFU/mL, 24-hour ([1]; 2.5 ppm as Cl2): 5.1 × 10^5 CFU/mL; CFU/mL, 24-hour ([1]; 10.0 ppm as Cl2): <100 CFU/mL; CFU/mL, 1-hour ([2]; 2.5 ppm as Cl2): 1.9 × 10^5 CFU/mL; CFU/mL, 4-hour ([2]; 2.5 ppm as Cl2): 2.0 × 10^6 CFU/mL; CFU/mL, 24-hour ([2]; 2.5 ppm as Cl2): 1.0 × 10^7 CFU/mL; CFU/mL, 1-hour ([2]; 10.0 ppm as Cl2): 2.0 × 10^2 CFU/mL; CFU/mL, 4-hour ([2]; 10.0 ppm as Cl2): 2.0 × 10^2 CFU/mL; CFU/mL, 24-hour ([2]; 10.0 ppm as Cl2): 5.0 × 10^2 CFU/mL; TRO (as ppm Cl2), 1-hour (urease; 1-hour): 4.6 ppm Cl2; TRO (as ppm Cl2), 4-hour (urease; 4-hour): 4.5 ppm Cl2; TRO (as ppm Cl2), 24-hour (urease; 24-hour): 4.1 ppm Cl2 |
